Results published in patent US20040028714A1, “Composition having insect repellent characteristics” (priority 2000, published 2004).
Several values for one entry are separate records, joined by “and”; a condition that tells them apart may be missing. Equal entries are not always repeated.

Legend:
[1] = system: Casemaking Clothes Moths (Tinea pellionella); assay: Adult clothes moth repellency on treated woolen cloth (Example 5); format: in vivo; details: fabric soaked in 20 g/L in ethanol, 2 days after moth introduction
Procedure: The effectiveness of compound 2 (example 1) to reduce the presence of cloth moths on woolen cloth was determined and was directly compared to the repellency of the well known moth repellents Citronellol and Farnesol.
The study was conducted in an air conditioned laboratory at a temperature of 22°±2° C. under a normal day/night cycle, using Casemaking Clothes Moths (Tinea pellionella) of mixed sex and age. The study is conducted over a 5 days period and the repellent effectiveness was assessed as follows:
Adults—2 days after insect introduction
A 10 cm×10 cm square of black woolen fabric free of bactericide) was soaked in a solution of the candidate repellent in ethanol at 20 g/L, squeezed and allowed to dry. The woollen square was placed in a small box (5 cm×10 cm×10 cm) which was open at one end to allow entry of adult clothes moth.
A similar square of fabric treated with ethanol (control) was placed in another box of the same size.
These two boxes were placed in an aquarium and 50 mixed sex adult moths were added. These were provided with food and water and left for 5 days.
At the end of 2 days the number of adult moths in each box was counted.
The above was repeated 3 times to provide 4 replicates.

[2] = system: German cockroaches (Blatella Germanica); assay: Cockroach repellency in tray with half-treated vinyl, compared with DEET and N-methyl-neodecanamide (Example 3); format: in vivo; details: 20 mg/m^2 on vinyl; for Number of Cockroaches present, Treated Section / Number of Cockroaches present, Untreated Section / Number of Cockroaches, Dead: single replicates (n = 50); for Number of Cockroaches present, Treated Section, Total / Number of Cockroaches present, Untreated Section, Total / Number of Cockroaches, Dead, Total: total of 4 replicates (200); for Percentage Dead / Percentage Present, Treated Section / Percentage Present, Untreated Section: cockroaches
Procedure: The effectiveness of compound 2 (example 1) as an insect repellent was determined using German cockroaches exposed to a formica surface partially treated/partially un-treated, and was directly compared to the repellency of the well known insect repellents DEET (N,N-diethyl-meta-toluamide) and N-methyl-neodecanamide. The study was conducted in an air conditioned laboratory at a temperature of 22°±2° C. under a normal day/night cycle, using German cockroaches (Blatella Germanica) of mixed sex and age. The study was conducted over a 7 days period and the repellent effectiveness was assessed 1, 3, 5 and 7 days after cockroach introduction. Each tray used in the study consisted of a melamine square tray of sides 1.8m×1.8m and 20 cm high walls. The upper part of the wall was provided with electrical strip, which prevented cockroaches escaping. A square of vinyl 90 cm×180 cm was treated with the test compound at 20 mg/m^2. This was achieved by soaking a paper wipe (Rag on a Roll, ca. 20 cm×20 cm) in a solution of the test compound in ethanol, squeezing out the excess liquid and wiping over the surface to give the required coverage. This was checked by weighing the cloth after application. The surface was allowed to dry. The treated vinyl square was placed in one half of the tray. A similar untreated square was placed in the other half of the tray. This square was treated with ethanol alone. Two sheets of formica (30 cm×30 cm) were placed at one corner of each tray, one on the treated surface and one on the untreated surface. This acted as a cockroach harbourage. The formica sheet to be used in the treated section was treated at the same rate as the treated formica. The formica was placed on two 1 cm high bottle tops to allow cockroaches access under the formica. 50 German cockroaches were added (15 adults and 35 nymphs) to the middle of the tray. No food and water was supplied for these cockroaches. At 1, 2, 3 and 7 days after cockroach introduction the number of cockroaches under each harbourage was counted. After each count the harbourage position was change to avoid the possibility of habituation to one location, the harbourages were replaced and new cockroaches were added to replace any dead cockroaches. The above was repeated 3 times to provide a total of 4 replicates.

[3] = share of moths found in the two boxes
[4] = 1 day after cockroach introduction
[5] = 2 days after cockroach introduction
[6] = 3 days after cockroach introduction
[7] = 7 days after cockroach introduction

Compound: CCNC(=O)C1CC(C)CCC1C(C)C (stereo not drawn) [Compound 2, N-ethyl-p-menthane-3-carboxamide]
- Moths Present, Treated Section, Total (%) [1, 3]: (29.4%)
- Moths Present, Untreated Section, Total (%) [1, 3]: (70.6%)
- The Number of Moths Present, Treated Section ([1]; single replicates (n = 50)): 6 and 7 and 11 and 8
- The Number of Moths Present, Untreated Section ([1]; single replicates (n = 50)): 9 and 19 and 27 and 22
- The Number of Moths Present, Treated Section, Total ([1]; total of 4 replicates): 32
- The Number of Moths Present, Untreated Section, Total ([1]; total of 4 replicates): 77
- cockroach repellency (in words) ([2]; over 7 days): excellent repellency
- Number of Cockroaches present, Treated Section [2, 4]: 0 (3×) and 3
- Number of Cockroaches present, Untreated Section [2, 4]: 50 (2×) and 49 and 47
- Number of Cockroaches, Dead [2, 4]: 0 (3×) and 1
- Number of Cockroaches present, Treated Section, Total [2, 4]: 3
- Number of Cockroaches present, Untreated Section, Total [2, 4]: 196
- Number of Cockroaches, Dead, Total [2, 4]: 1
- Number of Cockroaches present, Treated Section [2, 5]: 0 (3×) and 1
- Number of Cockroaches present, Untreated Section [2, 5]: 50 (2×) and 49 (2×)
- Number of Cockroaches, Dead [2, 5]: 0 (3×) and 1
- Number of Cockroaches present, Treated Section, Total [2, 5]: 1
- Number of Cockroaches present, Untreated Section, Total [2, 5]: 198
- Number of Cockroaches, Dead, Total [2, 5]: 1
- Number of Cockroaches present, Treated Section [2, 6]: 6 and 3 and 0 (2×)
- Number of Cockroaches present, Untreated Section [2, 6]: 44 and 47 and 50 and 49
- Number of Cockroaches, Dead [2, 6]: 0 (3×) and 1
- Number of Cockroaches present, Treated Section, Total [2, 6]: 9
- Number of Cockroaches present, Untreated Section, Total [2, 6]: 190
- Number of Cockroaches, Dead, Total [2, 6]: 1
- Number of Cockroaches present, Treated Section [2, 7]: 7 and 19 and 3 and 11
- Number of Cockroaches present, Untreated Section [2, 7]: 43 and 30 and 47 and 38
- Number of Cockroaches, Dead [2, 7]: 0 (2×) and 1 (2×)
- Number of Cockroaches present, Treated Section, Total [2, 7]: 40
- Number of Cockroaches present, Untreated Section, Total [2, 7]: 158
- Number of Cockroaches, Dead, Total [2, 7]: 2
- Percentage Dead ([2]; 1 day after treatment): 0.5%
- Percentage Present, Treated Section ([2]; 1 day after treatment): 1.5%
- Percentage Present, Untreated Section ([2]; 1 day after treatment): 98.0%
- Percentage Dead ([2]; 2 days after treatment): 0.5%
- Percentage Present, Treated Section ([2]; 2 days after treatment): 0.5%
- Percentage Present, Untreated Section ([2]; 2 days after treatment): 99.0%
- Percentage Dead ([2]; 3 days after treatment): 0.5%
- Percentage Present, Untreated Section ([2]; 3 days after treatment): 95.0%
- Percentage Dead ([2]; 7 days after treatment): 1.0%
- Percentage Present, Treated Section ([2]; 7 days after treatment): 20%
- Percentage Present, Untreated Section ([2]; 7 days after treatment): 79.0%
